Usually IC50 stands for the point on the concentration scale where inhibition reaches its midpoint.

Series [1] in a line: ABTS cation radical assay. It is filed as biochemical. The conditions noted are these: mean ± SEM of three parallel measurements. The method, then:
(§1) All data on bioactivity tests were averages of triplicate analyses. Activity assays were carried out at six concentrations, and the results are given as the IC50 values. The data were analyzed using One-way ANOVA followed by Tukey’s post hoc test. p < 0.05, p < 0.001 and p < 0.0001 were considered statistically significant. Data were recorded as mean ± SEM (standard error of the mean). […] IBM SPSS statistical software (Version: 28.0.0.0 (190)) and GraphPad Prism 10.2 were used for statistical analysis.

A short description of series [2]: DPPH free radical scavenging assay. The format is biochemical. The conditions noted are these: mean ± SEM of three parallel measurements. The method, then:
as §1
For orientation: DPPH is a stable violet radical that fades when it is reduced.

The nature of series [3]: CUPRAC (Cupric Reducing Antioxidant Capacity) method. It is filed as biochemical. The conditions noted are these: A0.5 values, mean ± SEM of three parallel measurements. The protocol: as §1
The test system of the next series is HepG2 cells. More on the design: method as in doi:10.14233/ajchem.2013.15043. The conditions noted are these: cited from earlier work.
The test system of another series is V79–4 cells. Further details: method as in PMID 18550394. To be noted: cited from earlier work.
For the next series, the system named is MCF-7 cell line. More on the design: method as in PMID 28856938. The conditions noted are these: data not included in the cited paper; cited from earlier work.
Another series concerns U118 cell line. Further details: method as in PMID 28856938. To be noted: data not included in the cited paper; cited from earlier work.
Another series relates to Hep-3B cell line. Further details: method as in PMID 28856938. The conditions noted are these: data not included in the cited paper; cited from earlier work.
Another series relates to U87 cell line. Further details: method as in PMID 28856938. To be noted: data not included in the cited paper; cited from earlier work.
Details of series [4]: method as in PMID 28856938. To be noted: annphenone isolated from a Euphorbia species; cited from earlier work.
Series [5] concerns A549 (human lung carcinoma epithelial cells). Briefly: MTT cell viability assay, A549. To be noted: for IC50: Homo sapiens, A549, 24 h, read-out: IC50, 24 h, A549; for selectivity index A549: versus CCD-1079Sk, 24 h.
A further series has as its system A549 cell line. More on the design: method as in PMID 28856938. To be noted: data not included in the cited paper; cited from earlier work.
Series [6] concerns MCF-7 (human breast cancer cells). Nature of the series: MTT cell viability assay, MCF-7. The format is cell-based. To be noted: 24 h; for IC50: Homo sapiens, MCF7, MTT, mean ± SD (n = 3); for selectivity index MCF-7: versus CCD-1079Sk. The method, then: (§2) The A549 (human lung carcinoma epithelial cells, ATCC, CCL-185), MCF-7 (human breast cancer cells, ATCC, HTB-22), and CCD-1079Sk (human normal skin fibroblast epithelial cells, ATCC, CRL-2097) cell lines were initially seeded into culture flasks and grown in DMEM supplemented with 10% FBS (Sigma-Aldrich, St Louis, MO), 1% penicillin/streptomycin (Thermo Fisher Scientific, Carlsbad, CA). The cell lines were maintained in a humidified atmosphere of 5% CO2 at a temperature of 37 °C. The culture medium was changed every two days until the cells reached 80% confluence.
(§3) 3-(4,5-dimethyl-2-thiazolyl)-2,5-diphenyl-2H-tetrazolium bromide (MTT) was used to assess the cytotoxicity of hyperoside, annphenone, daucosterol, and P. sivasicum methanol extract. Cells were grown in 96-well plates at a density of 5 × 10^3 cells per well. In total, 70 to 80% of confluent cells (after 24 h) were treated with different concentrations of compounds (prepared in a medium containing 1% DMSO) in the growth medium for 24 h. At the end of the incubation periods, MTT solution was added to the wells to give a final concentration of 0.5 mg/mL. The cells were then incubated at 37 °C for a further 3.5 h. To solubilize the formazan crystals, 100 μL of DMSO was added to each well. The optical density was read at 570 nm by using an ELISA microplate reader and directly correlated with the number of viable cells. For each concentration, the data for which the measurement was repeated at least three times were compared. The relative % cell viability and the IC50 value were determined by plotting the graph as a function of concentration. Untreated cells were considered as control, and medium without cells was considered as background control. To determine the cytotoxic effect of compounds on cell viability, cells that were not treated with compounds were considered 100% viable, and cell viability was calculated according to the following formula: % Cell Viability = Sample/Control × 100.
(§4) All data on bioactivity tests were averages of triplicate analyses. Activity assays were carried out at six concentrations, and the results are given as the IC50 values. The data were analyzed using One-way ANOVA followed by Tukey’s post hoc test. p < 0.05, p < 0.001 and p < 0.0001 were considered statistically significant. Data were recorded as mean ± SEM (standard error of the mean). Significant differences between means were determined by the one-way ANOVA, and p values < 0.05 were regarded as significant. IBM SPSS statistical software (Version: 28.0.0.0 (190)) and GraphPad Prism 10.2 were used for statistical analysis.

The test system of series [7] is CCD-1079Sk (human normal skin fibroblast epithelial cells). Nature of the series: MTT cell viability assay, CCD-1079Sk. It is filed as cell-based. To be noted: 24 h, mean ± SD (n = 3). The protocol:
as §2, §3, §4

A short description of series [8]: β-carotene linoleic acid bleaching assay. The format is biochemical. To be noted: mean ± SEM of three parallel measurements. The protocol: as §1
The next series has as its system MCF-7. Further details: method as in PMID 30160115. The conditions noted are these: after 24 h; cited from earlier work.
The next series deals with MDA-MB-231. More on the design: method as in PMID 30160115. The conditions noted are these: after 24 h; cited from earlier work.
The test system of a further series is breast cancer tumor. Further details: method as in PMID 30160115. To be noted: mice, dose-dependent; cited from earlier work.

SMILES strings stand for the structures. In brackets after ≈: the same amount, converted by molar mass.

As to `Cc1c(C)c2c(c(C)c1O)CC[C@@](C)(CCC[C@H](C)CCC[C@H](C)CCCC(C)C)O2` [α-Toc, Tocopherol], the “ABTS IC50” value in series [1] turned out to be 27.70 ± 0.28 µg/mL. Further, the “DPPH IC50” value in series [2] amounted to 36.35 ± 0.24 µg/mL. The “CUPRAC IC50 (A0.5: concentration of 0.500 Absorbance value)” value (shortened to “CUPRAC IC50”) in series [3] is 134.53 ± 0.19 µg/mL.

On to `O=c1[nH]cc(F)c(=O)[nH]1` [5-fluorouracil, reference compound], for which, in the series with HepG2 cells, the “antiproliferative IC50 on HepG2 cells” value was 0.33 µg/mL.

As for `COc1cc(O[C@@H]2O[C@H](CO)[C@@H](O)[C@H](O)[C@H]2O)cc(O)c1C(C)=O` [Annphenone, 2,4-dihydroxy-6-methoxy-acetophenone 4-O-β-D-glucopyranoside], the “cytoprotective effect against H2O2-induced apoptosis” value in the series with V79–4 cells is recorded as “confirmed”. The “antiproliferative IC50 on HepG2 cells” value in the series on HepG2 cells was 2.0 µg/mL. For the same molecule, the “cytotoxicity against MCF-7” value in the series with MCF-7 cell line was “no cytotoxicity”. Moreover, the “cytotoxicity against U118” value in the series on U118 cell line is “no cytotoxicity”. Also, the “cytotoxicity against Hep-3B” value with Hep-3B cell line is listed as “no cytotoxicity”. In addition, the “cytotoxicity against U87” value in the series with U87 cell line is “no cytotoxicity”. The “DPPH scavenging IC50” value in series [4] was 23.23 ± 1.8 µg/mL. In series [5], the IC50 stood at 250 ± 10 µg/mL (≈ 726 µM) and the “selectivity index A549” value was found to be 1.20. Also, the “cytotoxicity against A549” value in the series with A549 cell line is “no cytotoxicity”. Moreover, in [6], half-maximal inhibition (IC50) required 360 ± 20 µg/mL (≈ 1050 µM) and the “selectivity index MCF-7” value is 0.83. This molecule also displayed an IC50 in [7] of 300 ± 50 µg/mL (≈ 871 µM).

`Cc1cc(C(C)(C)C)c(O)c(C(C)(C)C)c1` [BHT, Butylated hydroxy toluene]: the “ABTS IC50” value in [1] is 21.67 ± 0.87 µg/mL. Moreover, the “CUPRAC IC50” value in series [3] came out at 26.85 ± 1.50 µg/mL.

For `O=c1c(O[C@@H]2O[C@H](CO)[C@H](O)[C@H](O)[C@H]2O)c(-c2ccc(O)c(O)c2)oc2cc(O)cc(O)c12` [Hyperoside, Quercetin-3-O-β-galactopyranoside], in series [5], the IC50 was 600 ± 70 µg/mL (≈ 1290 µM) and the “selectivity index A549” value is given as 0.41. Further, in [6], the IC50 is 370 ± 20 µg/mL (≈ 797 µM) and the “selectivity index MCF-7” value worked out at 0.67. This molecule registered a half-maximal inhibitory concentration (IC50) in series [7] of 250 ± 40 µg/mL (≈ 538 µM).

As to `COc1cccc2c1C(=O)c1c(O)c3c(c(O)c1C2=O)C[C@@](O)(C(=O)CO)C[C@@H]3O[C@H]1C[C@H](N)[C@H](O)[C@H](C)O1` [Doxorubicin, reference compound], in series [5], the IC50 worked out at 10 ± 10 µg/mL (≈ 18.4 µM) and the “selectivity index A549” value came to 28.0. In [6], half-maximal inhibition (IC50) was put at 40 ± 10 µg/mL (≈ 73.6 µM) and the “selectivity index MCF-7” value was 7.0. In series [7], the IC50 came out at 280 ± 10 µg/mL (≈ 515 µM).

`COc1ccc(O)c(C(C)(C)C)c1` [BHA, Butylated hydroxy anisol]: in series [1], the “ABTS IC50” value came out at 7.23 ± 0.01 µg/mL. In series [8], the “β-carotene IC50” value came out at 1.34 ± 0.04 µg/mL. For the same molecule, in [2], the “DPPH IC50” value stood at 28.59 ± 0.06 µg/mL. Besides, the “CUPRAC IC50” value in [3] is 24.49 ± 0.19 µg/mL.

In the case of `CC[C@H](CC[C@@H](C)[C@H]1CC[C@H]2[C@@H]3CC=C4C[C@@H](O[C@@H]5O[C@H](CO)[C@@H](O)[C@H](O)[C@H]5O)CC[C@]4(C)[C@H]3CC[C@]12C)C(C)C` [Daucosterol, β-sitosterol-3-O-β-glucopyranoside], the IC50 in the series on MCF-7 was 30.8 mM; with MDA-MB-231 it was 49.8 mM; in [5], 180 ± 20 µg/mL (≈ 312 µM); in series [6], 580 ± 20 µg/mL (≈ 1010 µM); in series [7] it was 260 ± 30 µg/mL (≈ 451 µM). The tumor volume entry with breast cancer tumor is reported as “decrease”. In the series on breast cancer tumor, the tumor weight entry is given as “decrease”. Also, in [5], the “selectivity index A549” value is listed as 1.44. Moreover, the “selectivity index MCF-7” value in series [6] amounted to 0.44.
